Columns and labels:
[1] = system: 3-nitrotyrosine protein nitration in astrocytes; test: Immunofluorescence of 3-nitrotyrosine adducts (protein nitration) in primary astrocytes treated with MPTP and cytokines; type: cell-based, mouse
Description: Immunofluorescence. Primary astrocytes were grown to confluence on 20 mm serum-coated glass coverslips and treated with saline or MPTP (10 μM), TNF-α (10 pg/ml), and IFN-γ (1 ng/ml) with or without DIM-C-pPhtBu (10 μM), rosiglitazone (10 μM), the NOS2 inhibitor AMT (25 nM) or NOS 1 inhibitor 7-NI (10 μM), or a DMSO vehicle control 8 hours prior to analysis. Immunofluorescence to confirm culture purity was conducted on cells grown to confluence on the 20 mm glass coverslips. Blocking and antibody hybridization was conducted in 1% BSA (w/v) in PBS, and all washes were conducted in PBS. Images were acquired using a Zeiss 20× air PlanApochromat objective and 6-8 microscopic fields were examined per treatment group over no less than three independent experiments. Fluorescent secondary antibodies were used to detect GFAP (488 nmcx/519 nmcm) and Iba1 or nitrosylated protein (647 nmcx/668 nmcm), respectively, while mounting medium containing DAPI (360 nmcx/460 nmcm) was used to identify cell nuclei.
The effect of NOS2 induction by MPTP and inflammatory cytokines on global protein nitration following NO/peroxynitrite (ONOO—) formation in astrocytes was examined by immunofluorescence (FIG. 3). Immunofluorescence using antibodies against GFAP (FITC) and 3-nitrotyrosine adducts (Cy5) was employed to measure the extent of protein nitration within astrocytes treated with MPTP and cytokines, with or without inclusion of DIM-C-pPhtBu (10 μM), rosiglitazone (10 μM), the high-affinity NOS2 inhibitor AMT (25 nM), the NOSI inhibitor 7-NI (10 μM) or a DMSO vehicle control. […] Co-treatment of astroytes with DIM-C-pPhtBu prevented MPTP-induced increases in nitration, resulting in similar levels of 3-nitrotyrosine adducts as saline-treated control cells (FIG. 3C). Mean intracellular fluorescence for 3-nitrotyrosine was quantified and compared between each treatment group (FIG. 3D).

[2] = system: primary striatal neurons co-cultured with activated astrocytes; test: Astrocyte-neuron co-culture: apoptosis of primary striatal neurons (caspase activity, Annexin V binding); type: cell-based, mouse; conditions: astrocytes co-treated with 25 nM for 8 hours, six hours of co-culture; FIG. 6 C-D
Description: Astrocyte Neuron Co-Culture. Cells were isolated as described above and astrocytes grown to confluence on permeable cell culture inserts (BD Biosciences, San Jose, Calif.) prior to treatment. Astrocytes were then treated with MPTP (10 μM), TNF-α (10 pg/ml) and IFN-γ (1 ng/ml) in the presence or absence of DIM-C-pPhtBu (10 μM), Rosiglitazone (10 μM) AMT (25 nM), or DMSO vehicle control for 8 hours. Media was then removed, and the astrocytes washed three times with sterile PBS to prevent carryover of treatment medium to the neurons, and the inserts were placed directly in each well over cultured neurons. Astrocyte-containing inserts were removed following six hours of co-culture, and neuronal caspase activity and phosphatidylserine translocation were measured by widefield fluorescence microscopy using the general cell permeable fluorescent caspase substrate rhodamine 110, bis-(L-aspartic acid amide) and an Annexin V Alexa Fluor 680 conjugate, respectively. Images were acquired using a Zeiss 20× air PlanApochromat objective and at least 10 microscopic fields were examined per treatment group over three independent experiments.
The efficacy of DIM-C-pPhtBu in preventing astrocyte-dependent neuronal apoptosis was examined in FIG. 6. Astrocytes were grown to confluence in cell culture inserts that are permeable to small molecules but prevent direct cell-cell contact. Following treatment of astrocytes with MPTP and TNF-α/IFN-γ in the presence or absence of DIM-C-pPhtBu (10 μM), rosiglitazone (10 μM), the NOS2 inhibitor AMT (25 nM), or DMSO, astrocytes were washed with PBS and co-incubated directly above primary striatal neurons in neurobasal medium. Indices of neuronal apoptosis were then measured using live-cell fluorescence imaging of caspase activity (FIG. 6A) and Annexin V binding (FIG. 6B). […] The DMSO vehicle control had no suppressive effect.
Differing letters denote statistical significance (p<0.05).

CC1CCN=C(N)S1 (stereo not drawn) [AMT, 2-amino-5,6-dihydro-6-methyl-4H-1,3-thiazine]
MPTP-induced increase in 3-nitrotyrosine formation ([1]; 25 nM co-treatment, astrocytes, FIG. 3D): prevented | Protein nitration in primary astrocytes induced by MPTP and TNF-α/IFN-γ ([1]; FIG. 7(D), concentration not given): prevents protein nitration | Apoptosis in co-cultured striatal neurons (caspase activity and Annexin V-binding) [2]: prevented
